The source of these data is the supplement of paper PMC11061612.

For test [1], the system named is Mewo (Melanoma). Description: combination Emax (second highest fraction inhibited in the dose matrix, 72 h); higher = more inhibition; extreme values may be limits of the assay. The procedure, abridged:
(§1)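 Bliss excess equals the observed combination effect minus the expected value EA + EB − EA·EB, where EA and EB are the effects of each agent alone. Combination Emax is the second-highest inhibition within the matrix. Inhibition was scaled from CellTiter-Glo 2.0 luminescence, with 0 set by vehicle wells and 1 by blank wells, after 72 hours of two-drug dosing of cells plated in 1536-well plates.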

For test [2], the system named is KARPAS-231 (B-Cell Non-Hodgkin's Lymphoma). The description is as above. The procedure, abridged: as §1
For test [3], the system named is SW1116 (Colorectal Carcinoma). The description is as above. The procedure, abridged:
as §1

Test [4] deals with CAPAN-1 (Pancreatic Carcinoma). Described as above. The method in brief: as §1
For test [5], the system named is TE-4 (Esophageal Squamous Cell Carcinoma). The experiment in a line: Bliss excess, mean over the matrix (fraction); higher = more synergy. The procedure, abridged:
as §1

Test [6] has as its system LU-139 (Small Cell Lung Carcinoma). The test is described as above. The procedure, abridged:
as §1

In test [7] the test system is HDLM-2 (Hodgkin's Lymphoma). The description is as above. The method in brief:
as §1

Test [8] relates to NCI-H2795 (Mesothelioma). Described as above. The procedure, abridged:
as §1

The subject of test [9] is OC-314 (Ovarian Carcinoma). The description is as above. The method in brief:
as §1

The subject of test [10] is NB14 (Neuroblastoma). Described as above. The procedure, abridged: as §1
Test [11] deals with RT-112 (Bladder Carcinoma). The description is as above. The method in brief: as §1
For test [12], the system named is K5 (Thyroid Gland Carcinoma). The test is described as above. The procedure, abridged: as §1
For test [13], the system named is MHH-PREB-1 (B-Cell Non-Hodgkin's Lymphoma). Described as above. The procedure, abridged: as §1
In test [14] the test system is NCI-H69 (Small Cell Lung Carcinoma). The test is described as above. The method in brief:
as §1

Test [15] concerns SW626 (Colorectal Carcinoma). Described as above. The method in brief:
as §1

In test [16] the test system is SUP-T1 (T-Lymphoblastic Leukemia). The test is described as above. The procedure, abridged:
as §1

The test system of test [17] is RKO (Colorectal Carcinoma). The test is described as above. The method in brief: as §1
For test [18], the system named is CAPAN-1 (Pancreatic Carcinoma). The description is as above. The method in brief:
as §1

For test [19], the system named is COLO-829 (Melanoma). The test is described as above. The method in brief: as §1
Test [20] deals with SW1271 (Small Cell Lung Carcinoma). Described as above. The method in brief: as §1

Take `COc1cccc(OCCCN)c1-c1cc(Nc2cnc(C#N)cn2)n[nH]1` [Prexasertib] + CN(C)CCCOc1ccc(-c2ccc3ncc4c(c3c2)n(C2CCOCC2)c(=O)n4C)cn1 [AZD0156] (first compound max 1 µM, 7x7, partner max 1 µM): the “combination Emax” value stood at 0.531 in test [1], 0.979 in test [2], 0.516 in test [3] and 0.611 in [4]. For the same molecule, the Bliss excess in test [5] is -0.0049; in [6], -0.0244; in test [7], -0.0727; in [8], 0.05; in test [9] it was 0.009; in test [10], -0.033. Besides, the Bliss excess was 0.0134 in test [11]; -0.0339 in [12]; -0.0167 in test [13]; -0.081 in test [14]; -0.0035 in test [15]; -0.0707 in test [16]. Besides, the Bliss excess in test [17] was -0.014; in test [18], -0.0747; in [19] it was 0.0127; in test [20], -0.0183.

For the molecule `CC(=O)Nc1cccc(-n2c(=O)n(C3CC3)c(=O)c3c(Nc4ccc(I)cc4F)n(C)c(=O)c(C)c32)c1` [Trametinib] + Cc1nc(-c2cn3c(n2)-c2ccc(-c4cnn(C(C)(C)C(N)=O)c4)cc2OCC3)n(C(C)C)n1 [Taselisib] (first compound max 1 µM, 7x7, partner max 10 µM), the “combination Emax” value is 0.692 in test [1], 0.149 in [2], 0.866 in test [3] and 0.774 in [4]. In addition, the Bliss excess in test [5] is 0.0758; in [6] it was -0.0203; in test [7], 0.0406; in test [8], 0.0749; in [9], 0.066; in [10] it was 0.0702. The Bliss excess in test [11] is 0.106; in test [12] it was 0.0183; in test [13] it was 0.0277; in test [14] it was -0.0257; in [15] it was 0.0644; in test [16], 0.0363. For the same molecule, the Bliss excess in test [17] worked out at 0.219; in [18] it was 0.129; in [19] it was 0.234; in [20], 0.0896.

With `CS(=O)(=O)CCNCc1ccc(-c2ccc3ncnc(Nc4ccc(OCc5cccc(F)c5)c(Cl)c4)c3c2)o1` [Lapatinib] + Cn1cnc2c(F)c(Nc3ccc(Br)cc3Cl)c(C(=O)NOCCO)cc21 [Selumetinib] (first compound max 10 µM, 7x7, partner max 10 µM), the “combination Emax” value in [1] was found to be 0.503; in test [3], 0.73; in test [4] it was 0.615. The Bliss excess in [6] was -0.0161; in test [7], 0.0023; in test [8] it was -0.0488; in test [9], 0.0644; in test [10], 0.0397; in [11], 0.0134. The Bliss excess in test [12] was -0.022; in test [14] it was -0.0384; in test [16] it was -0.0679; in [17], 0.0413; in [18] it was -0.0664; in test [20], -0.0167.

Regarding `CCc1c2c(nc3ccc(O)cc13)-c1cc3c(c(=O)n1C2)COC(=O)[C@]3(O)CC` [SN-38] + O=C(c1cc(Cc2n[nH]c(=O)c3ccccc23)ccc1F)N1CCN(C(=O)C2CC2)CC1 [Olaparib] (first compound max 0.3 µM, 7x7, partner max 10 µM), the “combination Emax” value in [1] worked out at 0.338; in test [2] it was 1; in test [3] it was 0.214; in [4] it was 0.818. For the same molecule, the Bliss excess in test [5] is -0.0103; in test [6] it was 0.0842; in test [7] it was -0.0438; in [8] it was 0.08; in [9], 0.117; in test [10], 0.0063. Also, the Bliss excess is 0.116 in [11]; 0.0566 in test [12]; -0.0035 in test [14]; 0.0064 in test [15]; 0.0435 in [16]; 0.0223 in [17]. Also, the Bliss excess in test [18] is 0.0168; in test [19], -0.0186; in test [20] it was 0.129.

Consider `Cc1nc(-c2cn3c(n2)-c2ccc(-c4cnn(C(C)(C)C(N)=O)c4)cc2OCC3)n(C(C)C)n1` [Taselisib] + O=C(Nc1ccc2[nH]nc(-c3ccncc3)c2c1)[C@@H]1CCN(CC(=O)N2CCN(c3ccc(-c4ncccn4)cc3)CC2)C1 [SCH772984] (first compound max 10 µM, 7x7, partner max 5 µM), for which the “combination Emax” value in test [1] is 0.777; in [3], 0.521; in test [4] it was 0.77. The Bliss excess in test [6] is -0.0066; in test [7], 0.0529; in test [8], 0.0704; in [9] it was 0.0521; in test [10], 0.192; in test [11] it was 0.108. Moreover, the Bliss excess in test [12] is 0.0419; in test [14], 0.0251; in test [16], 0.0502; in [17], 0.146; in [18] it was 0.0449; in test [20], -0.0096.

As to `C=CCn1c(=O)c2cnc(Nc3ccc(N4CCN(C)CC4)cc3)nc2n1-c1cccc(C(C)(C)O)n1` [AZD1775] + C1CN(CCC1(C(=O)N[C@@H](CCO)C2=CC=C(C=C2)Cl)N)C3=NC=NC4=C3C=CN4 [Capivasertib] (first compound max 3 µM, partner max 3 µM), the “combination Emax” value amounted to 0.589 in test [1], 1 in test [2], 0.48 in test [3] and 0.674 in test [4]. For the same molecule, the Bliss excess is -0.045 in [5]; 0.0096 in [6]; -0.0503 in test [7]; -0.0042 in test [8]; -0.0158 in test [9]; -0.0551 in [10]. Moreover, the Bliss excess is -0.0348 in [11]; 0.0493 in test [12]; -0.005 in [13]; -0.0601 in test [14]; -0.0606 in [15]; -0.0212 in test [16]. The Bliss excess was 0.0179 in test [17], 0.0335 in [19] and -0.0161 in [20].

In the case of `C=CCn1c(=O)c2cnc(Nc3ccc(N4CCN(C)CC4)cc3)nc2n1-c1cccc(C(C)(C)O)n1` [AZD1775] + CCc1c2c(nc3ccc(O)cc13)-c1cc3c(c(=O)n1C2)COC(=O)[C@]3(O)CC [SN-38] (first compound max 1 µM, partner max 0.3 µM), the results for the “combination Emax” value in [1], in test [3] and in test [4] were 0.676, 0.43 and 0.799, respectively. Further, the Bliss excess in test [6] was -0.0526; in test [7], -0.0928; in test [8], -0.0951; in test [9], 0.0032; in [10], -0.007; in [11], 0.109. The Bliss excess in test [12] was -0.0219; in test [14], -0.0629; in [16], -0.105; in [17], -0.0377; in test [18], -0.0635; in test [20], -0.0391.

For the molecule `CS(=O)(=O)CCNCc1ccc(-c2ccc3ncnc(Nc4ccc(OCc5cccc(F)c5)c(Cl)c4)c3c2)o1` [Lapatinib] + NC1(c2ccc(-c3nc4ccn5c(=O)[nH]nc5c4cc3-c3ccccc3)cc2)CCC1 [MK-2206] (first compound max 10 µM, 7x7, partner max 10 µM), the “combination Emax” value in test [1] was 0.521; in [3], 0.627; in test [4] it was 0.331. Moreover, the Bliss excess in [6] is 0.0119; in test [7] it was -0.0168; in [8] it was 0.0513; in test [9], 0.043; in [10], 0.0136; in test [11] it was 0.0746. The Bliss excess is 0.0293 in [12]; 0.0389 in [14]; -0.0215 in [16]; -0.0002 in test [17]; -0.016 in [18]; -0.0245 in test [19]. Further, in test [20], the Bliss excess was 0.0083.
